# Experiments:
# [1] = test system: Akt Ser473 phosphorylation in rat primary cortical neurons; experiment: Non-amyloid insulin resistance model (palmitate/ceramide) in primary cortical neurons; assay type: cell-based; conditions: palmitate 300 μM; PS48 100 nM, 24 hrs; insulin 20 nM
# Procedure: FIG. 1B. Non-amyloid-based insulin resistance model. Partial restoration of insulin-induced Akt activation in rat primary cortical neurons exposed to the fatty acid neurotoxin palmitate (300 μM). […] . The same result was obtained in ceramide-treated (50 μM) primary neurons (not shown); *p<0.05). Representative western blot above, n=3 experiments.
# SH-SY5Y were left undifferentiated.
# SH-SY5Y cells = experiment: Cell viability, MTT assay, Aβ42-expressing SH-SY5Y cells
# Procedure: FIG. 2A. Cell viability as measured by MTT assay.
# SH-SY5Y cells were washed twice in warm Dulbecco's phosphate-buffered saline (DPBS) and incubated in 1 ml DMEM containing 0.5 mg (3-[4,5-dimethylthiazol-2-yl]-2,5-diphenyltetrazolium bromide) (MTT or WST; Molecular Probes, Eugene, OR) for 2-3 h at 37° C. and 5% CO2. The medium was aspirated and the cells were washed twice with pre-warmed DPBS. The formazan salts were dissolved in 1 ml pure ethanol before use. Cells were homogenized by repetitive pipetting and centrifuged for 5 min at 4500 rpm, and the supernatant collected. Absorbance was read against an ethanol blank at 590 nm.
# APP/PS-1 transgenic mice = experiment: Morris water maze in APP/PS-1 transgenic mice, PS48 via diet; assay type: in vivo, mouse; conditions: for time spent over the platform area, acquisition probe: TG
# Procedure: Next, a series of experiments was performed using a Morris water maze. WT mice fed standard diet (SD) reached the hidden platform in a shorter time compared to TG-SD mice. […] The PS48 effect was more pronounced within the standard diet condition. *p<0.05, **p<0.01, ANOVA; ^p<0.05, t-test. WT mice fed standard diet (SD) reached the hidden platform zone in a shorter distance compared to TG-SD mice. […] The PS48 effect was more pronounced within the standard diet condition. Memory acquisition for the location of the escape platform location was tested in 12-month-old APP/PS1 transgenic and littermate mice. The removed escape platform was located in the northeast quadrant of the tank. […] The 10 cm platform is indicated in the figure by the shaded circle in the upper right quadrant. The following metrics were quantified: (1) time spent swimming over the target area, (2) latency to attain the target area, (3) path length to platform, and (4) number of crossings over the area. […] Transgenic animals fed high fat diet (HFD) performed less well than those on standard diet. […] Lower latency values indicate better recall for the target location. […] Animals were retrained with the platform in the SE quadrant and probe phase conducted as before. FIGS. 13E-13H show path length taken, in cm, to first reach hidden platform. […] Similar probe results were obtained in the subsequent reversal trial. […] (±1 SEM, n=16 data points per group, *p<0.05, **p<0.01, ++p<0.001). […] The data has similar import to time spent over platform area above.
# C57BL/6 mice [2] = experiment: Safety of PS48 by oral gavage for 14 days; assay type: in vivo, mouse; conditions: oral gavage 1 or 50 mg/kg per day
# Procedure: (§1) Finally, a series of in vivo experiments was performed to assess safety of treatment with PS48. […] Similarly, when PS48 was given by oral gavage over 2 weeks, there were no signs of toxicity by gross observation, organ specific necropsy, or weight.
# Adult C57BL/6 mice (n=6 per group) were administered PS48 for 14 days. A low dose group received 1 mg/kg per day, while a high dose group received 50 mg/kg per day. A negative control group received corn oil. […] Body and organ specific weights were unaffected at necropsy. Fasting serum glucose at trial end was unchanged (˜150 mg/dl).
# C2C12 myotubes = experiment: Cell viability (cytoprotection) in C2C12 myotubes
# Procedure: Cell viability as measured by MTT assay.
# Mouse C2C12 cells (ATCC) were grown in Dulbecco's modified Eagle medium (DMEM), 20% fetal bovine serum (FBS) (Invitrogen), and maintained for passage below 60% confluence. Cultures at or above 90% confluence were then differentiated in DMEM, 2% adult horse serum (DM) for 3 days before use.
# mTOR = experiment: Downstream mTOR phosphorylation; assay type: cell-based; conditions: PS48 1 or 10 μM, 2-4 hrs before doxycycline
# C57BL/6 mice [3] = experiment: Safety of intravenous PS48 over 2 weeks; assay type: in vivo, mouse
# Procedure: as §1
# For intravenous PS48, adult male C57BL/6 mice (Charles River, n=6 per group) were fed ad libitum and dosed with PS48 or vehicle in an escalating schedule from 3-20 mg/kg IV daily; 3-10 mg/kg days 1-6, and 20 mg/kg days 7-13. Tail vein blood sugars were obtained 30, 60, and 120 minutes after every third dose.
# Liver transaminases ALT and AST, as well as muscle creatine kinase (CK), were also measured to assess possible liver toxicity and possible general tissue toxicity, respectively. A change in ALT, albeit statistically significant, was very small.
compound,measurement,setting,value
"O=C(O)/C=C(/CCc1ccc(Cl)cc1)c1ccccc1 [PS48, (Z)-5-(4-chlorophenyl)-3-phenylpent-2-enoic acid]",inhibition of Akt Ser473 phosphorylation by palmitate,[1],partly reversed inhibition of Akt Ser473 phosphorylation by palmitate
same,"cell viability, comparison with PPAR agonist (FIG. 2B)","SH-SY5Y cells; PS48 10 μM, pioglitazone 5 μM",compared favorably
same,cell viability (MTT) of amyloid-bearing cells,"SH-SY5Y cells; pretreatment before doxycycline, PS48 10 μM or insulin 100 nM, harvested at 48 hrs",reverted cells to basal condition or better
same,"latency to reach the hidden platform, place learning and reversal tasks","APP/PS-1 transgenic mice; PS48 orally through diet, SD and HFD, more pronounced on standard diet",tended to reduce latency
same,"time spent over the platform area, acquisition probe","APP/PS-1 transgenic mice; HFD supplemented with PS48, p<0.01 vs Tg HFD w/V",most significant improvement
same,"time spent over the platform area, acquisition probe","APP/PS-1 transgenic mice; standard diet with PS48, p<0.10 vs vehicle fed",improved in this measure
same,"path length, acquisition and reversal data combined",APP/PS-1 transgenic mice; Tg HFD group,significantly benefited
same,"latency to platform, acquisition probe",APP/PS-1 transgenic mice; Tg mice on standard or high fat diet vs vehicle controls,Results favored
same,"path length to first reach hidden platform, probe",APP/PS-1 transgenic mice; Tg on standard or HFD diet,trended improvements in the direction of WT
same,crossing numbers over removed platform location,"APP/PS-1 transgenic mice; both probe trials combined, p<0.05 vs vehicle",performed significantly better than vehicle
same,distance to zone to reach the hidden platform,"APP/PS-1 transgenic mice; dietary PS48, SD and HFD, more pronounced on standard diet",tended to reduce distance to zone
same,behavioral changes,C57BL/6 mice [2],No overt behavioral changes
same,body and organ specific weights at necropsy,C57BL/6 mice [2],unaffected
same,tolerability,C57BL/6 mice [2],well tolerated
same,fasting serum glucose at trial end,C57BL/6 mice [2]; unchanged,~150 mg/dL
same,cytoprotection,C2C12 myotubes,same cytoprotection
same,downstream mTOR substrate phosphorylation,mTOR,unchanged
same,behavioral changes,"C57BL/6 mice [3]; 3-20 mg/kg IV daily, 2-week trial",No behavioral changes
same,change in muscle creatine kinase (CK),C57BL/6 mice [3]; IV daily for 14 days,no significant change
same,change in ALT,"C57BL/6 mice [3]; IV daily for 14 days, statistically significant",very small
same,mean body weight or mean blood sugars,"C57BL/6 mice [3]; IV, 3-20 mg/kg daily",no significant change
same,gross necropsy,"C57BL/6 mice [3]; IV, after 14 days",no abnormalities

# From patent US12653799B2, “Compositions and methods for treating Alzheimer's disease” (ELEANORE BENNETT CHARITABLE TRUST #2, priority 2021, dated 2026)
